pEC50: −log10 of the molar value.

The target of one experiment is T1, human GPR40 (Homo sapiens, UniProt O14842).
T1 construct: host or cells: CHO cells
T1 sequence (O14842 whole entry): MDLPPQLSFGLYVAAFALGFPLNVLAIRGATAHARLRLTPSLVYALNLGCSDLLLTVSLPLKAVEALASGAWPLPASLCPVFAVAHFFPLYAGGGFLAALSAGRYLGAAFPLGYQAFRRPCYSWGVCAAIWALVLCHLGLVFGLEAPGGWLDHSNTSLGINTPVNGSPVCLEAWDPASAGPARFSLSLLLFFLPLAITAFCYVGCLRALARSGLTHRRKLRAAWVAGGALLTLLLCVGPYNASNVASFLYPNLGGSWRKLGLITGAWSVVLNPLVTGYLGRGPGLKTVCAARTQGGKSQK
Nature of the experiment: Cell based aequorin assay using human GPR40. Particulars: CHO cells stably transfected with GPR40 and aequorin; 0.01% HSA; aequorin luminescence; read-out: Relative EC50. The protocol:
Cell-based aequorin assays were employed to characterize the modulatory activity of compounds on the GPR40 signaling pathway. In an exemplary assay, CHO cells were stably transfected with both GPR40 and Aequorin (Euroscreen). Cells were detached from the tissue culture dish with 2 mL of trypsin (0.25% (w/v)). Trypsinization was halted with 28 mL of Hanks Buffered Salt Solution containing 20 mM Hepes (H/HBSS) and 0.01% fatty acid-free human serum albumin (HSA). Coelantrazine was added to 1 ug/mL, and the cells were incubated for 2 hours at room temperature. Compounds were dissolved in DMSO for preparation of 10 mM stock solutions. Compounds were diluted in H/HBSS containing either 0.01% HSA. Serial dilutions of the test compounds were prepared to determine dose response.
Aequorin luminescence measurements were made using an EG&G Berthold 96-well luminometer, and the response was measured over a 20 second interval after cells and compounds were mixed. The maximum relative light units was plotted to determine dose response. The EC50 (effective concentration to reach 50% maximal response) was determined from the dose response plot.
Table 1 presents representative data (EC50 values) obtained for exemplary compounds of the invention for the relative activation of human GPR40. […]
For the molecule `CCCCOc1ccc(C)cc1-c1ccc(COc2ccc([C@H](CC(=O)O)C(=O)N(C)C)cc2)cc1`, the pEC50 (usually −log10 of the EC50, conventionally taken in molar units) was 7.00 to 8.00. For the molecule `Cc1nc(-c2ccc(C(F)(F)F)cc2)sc1COc1ccc([C@H](CC(=O)O)C(=O)N(C)C)cc1`, the pEC50 was 7.00 to 8.00.

For `Cn1ccnc1C(CC(=O)O)c1ccc(OCc2cccc(-c3ccc(C(F)(F)F)cc3)c2)cc1` (centres unmarked), the pEC50 was 6.00 to 7.00.

Regarding `CCCCOc1ccc(C)cc1-c1ccc(COc2ccc([C@H](CC(=O)O)c3nccn3C)cc2)cc1`, the pEC50 is 6.00 to 7.00. `Cn1ccnc1C(CC(=O)O)c1ccc(OCc2cccc(Oc3ccccc3)c2)cc1` (centres unmarked): the negative logarithm of the EC50 (pEC50) is 6.00 to 7.00. As to `Cc1nc(-c2ccc(C(F)(F)F)cc2)sc1COc1ccc([C@H](CC(=O)O)c2nccn2C)cc1`, the pEC50 was 6.00 to 7.00.

As for `CCOc1cccc(-c2ccc(COc3ccc([C@H](CC(=O)O)c4nccn4C)cc3)cc2)c1`, the pEC50 was 6.00 to 7.00. Regarding `Cc1c(Cl)cccc1-c1cccc(COc2ccc([C@H](CC(=O)O)c3nccn3C)cc2)c1`, the pEC50 is 7.00 to 8.00. With `Cc1ccc(Cl)cc1-c1cccc(COc2ccc([C@H](CC(=O)O)c3nccn3C)cc2)c1`, the pEC50 is 7.00 to 8.00.

With `O=C(O)CC(c1ccc(OCc2cccc(-c3ccc(C(F)(F)F)cc3)c2)cc1)c1ncco1` (centres unmarked), the pEC50 was 7.00 to 8.00.

On to `CCCCOc1ccc(C)cc1-c1ccc(COc2ccc(C(CC(=O)O)c3ncco3)cc2)cc1` (centres unmarked), for which the pEC50 was 7.00 to 8.00. Same read-out and setting: the figure for `CCCCOc1ccc(C)cc1-c1ccc(COc2ccc([C@@H](CC(=O)O)c3ncco3)cc2)cc1` is 6.00 to 7.00; for `Cc1nc(-c2ccc(C(F)(F)F)cc2)sc1COc1ccc(C(CC(=O)O)c2ncco2)cc1` (centres unmarked) it is 7.00 to 8.00; for `CCOc1cccc(-c2ccc(COc3ccc(C(CC(=O)O)c4ncco4)cc3)cc2)c1` (centres unmarked) it is 5.00 to 6.00. Same read-out and setting: as for `Cc1cc(Cl)ccc1-c1cccc(COc2ccc(C(CC(=O)O)c3ncco3)cc2)c1` (centres unmarked), the figure is 6.00 to 7.00. Turning to `O=C(O)CC(c1ccc(OCc2cccc(Oc3ccccc3)c2)cc1)c1ncco1` (centres unmarked), the pEC50 was 6.00 to 7.00. Regarding `Cc1cc(Cl)ccc1-c1cccc(COc2ccc([C@H](CC(=O)O)c3ncco3)cc2)c1`, the pEC50 was 7.00 to 8.00. Consider `Cc1cc(Cl)ccc1-c1cccc(COc2ccc([C@@H](CC(=O)O)c3ncco3)cc2)c1`, for which the pEC50 is 5.00 to 6.00. In the case of `CCCCOc1ccc(C)cc1-c1ccc(COc2ccc([C@H](CC(=O)O)c3ncnn3C)cc2)cc1`, the pEC50 was 7.00 to 8.00. `Cc1nc(-c2ccc(C(F)(F)F)cc2)sc1COc1ccc([C@H](CC(=O)O)c2ncnn2C)cc1`: the pEC50 is 6.00 to 7.00. Same read-out and setting: the figure for `CCOc1cccc(-c2ccc(COc3ccc([C@H](CC(=O)O)c4ncnn4C)cc3)cc2)c1` is 6.00 to 7.00; for `CCCCOc1ccc(C)cc1-c1ccc(COc2ccc([C@H](CC(=O)O)c3nnnn3C)cc2)cc1` it is 7.00 to 8.00.

As to `Cc1nc(-c2ccc(C(F)(F)F)cc2)sc1COc1ccc([C@H](CC(=O)O)c2nnnn2C)cc1`, the pEC50 is 7.00 to 8.00. On the same count and under the same terms, as for `Cc1c(Cl)cccc1-c1cccc(COc2ccc([C@H](CC(=O)O)c3nnnn3C)cc2)c1`, the figure is > 8.00; as for `Cc1ccc(Cl)cc1-c1cccc(COc2ccc([C@H](CC(=O)O)c3nnnn3C)cc2)c1`, 7.00 to 8.00.

For `Cc1cc(Cl)ccc1-c1cccc(COc2ccc([C@H](CC(=O)O)C(=O)N(C)C)cc2)c1` [Example 3, (S)-3-[4-(4′-chloro-2′-methyl-biphenyl-3-ylmethoxy)-phenyl]-N,N-dimethyl-succinamic acid], the pEC50 was 7.00 to 8.00. Still for that read-out and setting: as for `Cc1ccc(-c2nc(C)c(COc3ccc([C@H](CC(=O)O)C(=O)N(C)C)cc3)s2)cc1` [Example 4, (S)-4-(dimethylamino)-3-(4-((4-methyl-2-p-tolylthiazol-5-yl)methoxy)phenyl)-4-oxobutanoic acid], the figure is 7.00 to 8.00; as for `Cn1ncnc1[C@@H](CC(=O)O)c1ccc(OCc2cccc(-c3ccc(C(F)(F)F)cc3)c2)cc1` [Example 5, (S)-3-(2-methyl-2H-1,2,4-triazol-3-yl)-3-[4-(4′-trifluoromethyl-biphenyl-3-ylmethoxy)-phenyl]-propionic acid], 6.00 to 7.00; as for `Cc1cc(Cl)ccc1-c1cccc(COc2ccc([C@H](CC(=O)O)c3ncnn3C)cc2)c1` [Example 6, (S)-3-[4-(4′-chloro-2′-methyl-biphenyl-3-ylmethoxy)-phenyl]-3-(2-methyl-2H-1,2,4-triazol-3-yl)-propionic acid], 7.00 to 8.00. With `Cn1nnnc1[C@@H](CC(=O)O)c1ccc(OCc2cccc(-c3ccc(C(F)(F)F)cc3)c2)cc1` [Example 7, (S)-3-(1-methyl-1H-tetrazol-5-yl)-3-[4-(4′-trifluoromethyl-biphenyl-3-ylmethoxy)-phenyl]-propionic acid], the pEC50 is 7.00 to 8.00. For the molecule `Cc1cc(Cl)ccc1-c1cccc(COc2ccc([C@H](CC(=O)O)c3nnnn3C)cc2)c1` [Example 8, (S)-3-[4-(4′-chloro-2′-methyl-biphenyl-3-ylmethoxy)-phenyl]-3-(1-methyl-1H-tetrazol-5-yl)-propionic acid], the pEC50 is 7.00 to 8.00. Regarding `Cc1cc(Cl)ccc1-c1cccc(COc2ccc([C@H](CC(=O)O)c3nccn3C)cc2)c1` [Example 9, (S)-3-[4-(4′-chloro-2′-methyl-biphenyl-3-ylmethoxy)-phenyl]-3-(1-methyl-1H-imidazol-2-yl)-propionic acid], the pEC50 was 7.00 to 8.00.

`CCCCOc1ccc(C)cc1-c1ccc(COc2ccc([C@H](CC(=O)O)c3ncco3)cc2)cc1` [Example 10, (S)-3-[4-(5′-methyl-2′-butoxybiphenylmethoxy)phenyl]-3-(oxazol-2-yl)propanoic acid]: the pEC50 was 7.00 to 8.00.

The subject of another experiment is islet cells. In words: Insulin secretion assay in human islet cells. Format: cell-based. Particulars: human islet cells from cadaveric donors; KRBH with 11.2 mM glucose; insulin by SPA; read-out: EC50, stimulation of insulin secretion from islet cells. As for the experimental part:
Human islets were isolated from cadaveric donors. Islets were treated with trypsin (0.25% (w/v) and cells were seeded in 96-well plates containing 3,000 cells per well. Cells were cultured in Roswell Park Memorial Institute (RMPI) media containing 10% fetal bovine serum.
For determination of insulin secretion, media was removed from islet cells and replaced with Krebs-Ringer bicarbonate buffer containing 10 mM HEPES (KRBH) and 2 mM glucose. After one hour incubation, media was replaced with KRBH conaining 11.2 mM glucose and test compounds. Insulin released into the medium from the islet cells was measured using scintillation proximity assay (SPA).
With `Cc1ccc(-c2nc(C)c(COc3ccc([C@H](CC(=O)O)C(=O)N(C)C)cc3)s2)cc1` [Example 4, (S)-4-(dimethylamino)-3-(4-((4-methyl-2-p-tolylthiazol-5-yl)methoxy)phenyl)-4-oxobutanoic acid], the pEC50 was > 6.00. Same read-out and setting: as for `Cc1cc(Cl)ccc1-c1cccc(COc2ccc([C@H](CC(=O)O)c3nccn3C)cc2)c1` [Example 9, (S)-3-[4-(4′-chloro-2′-methyl-biphenyl-3-ylmethoxy)-phenyl]-3-(1-methyl-1H-imidazol-2-yl)-propionic acid], the figure is > 6.00.

The values are drawn from patent publication US7465804B2, “Compounds, pharmaceutical compositions and methods for their use in treating metabolic disorders” (Amgen Inc., priority 2005, dated 2008).
